In ChEMBL document CHEMBL1201862, “PubChem BioAssay data set” (2004):
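Each compound was tested at five concentrations against cells in 96-well plates for 48 hours. GI50 is the concentration that inhibits growth by half.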 Calls of active or inactive are those of the source. No stated cut-off is given here; in the data, active = GI50 up to about 1.1 µM and inactive = higher.

Tests used:
Assay in all cases: NCI-60 cell line screen, 48 h
ACHN = tested on: ACHN
CAKI-1 = tested on: CAKI-1
CCRF-CEM = tested on: CCRF-CEM
HCT-116 = tested on: HCT-116
HCT-15 = tested on: HCT-15
HL-60 = tested on: HL-60
HT-29 = tested on: HT-29
LOX IMVI = tested on: LOX IMVI
MDA-N = tested on: MDA-N
MOLT-4 = tested on: MOLT-4
NCI-H522 = tested on: NCI-H522
NCI/ADR-RES = tested on: NCI/ADR-RES
OVCAR-4 = tested on: OVCAR-4
RXF 393 = tested on: RXF 393
SF-295 = tested on: SF-295
SN12C = tested on: SN12C
TK-10 = tested on: TK-10
UACC-257 = tested on: UACC-257
UO-31 = tested on: UO-31

Compound	GI50 (ACHN)	GI50 (CAKI-1)	GI50 (CCRF-CEM)	GI50 (HCT-116)	GI50 (HCT-15)	GI50 (HL-60)	GI50 (HT-29)	GI50 (LOX IMVI)	GI50 (MDA-N)	GI50 (MOLT-4)	GI50 (NCI-H522)	GI50 (NCI/ADR-RES)	GI50 (OVCAR-4)	GI50 (RXF 393)	GI50 (SF-295)	GI50 (SN12C)	GI50 (TK-10)	GI50 (UACC-257)	GI50 (UO-31)
C=C1c2nc3ccccc3n2C=C(c2ccc(Cl)cc2)N1c1ccc(OCCN2CCCCC2)cc1	> 45 µM (inactive)	> 45 µM (inactive)	> 45 µM (inactive)	> 45 µM (inactive)	> 45 µM	5.01 µM (inactive)	> 45 µM (inactive)	> 45 µM (inactive)	6.32 µM (inactive)	> 45 µM (inactive)	14.8 µM (inactive)	> 45 µM (inactive)	> 45 µM (inactive)	> 45 µM (inactive)	> 45 µM (inactive)	> 45 µM (inactive)	> 45 µM (inactive)	0.843 µM (active)	> 45 µM (inactive)
Cn1c(=O)c2c(ncn2CN2CCN(Cn3cnc4c3c(=O)n(C)c(=O)n4C)CC2)n(C)c1=O	27 µM (inactive)	77.3 µM (inactive)	21.9 µM (inactive)	16.9 µM (inactive)	27.6 µM	23 µM (inactive)	26.2 µM (inactive)	24.2 µM (inactive)	50.2 µM (inactive)	17 µM (inactive)	44.7 µM (inactive)	> 100 µM (inactive)	> 100 µM (inactive)	20.2 µM (inactive)	> 100 µM (inactive)	46.9 µM (inactive)	21.5 µM (inactive)	47.1 µM (inactive)	46.1 µM (inactive)
O=C(Nc1ccc(Cl)cc1)c1cc(S(=O)(=O)Nc2nc3cccnc3[nH]2)c(SSc2cc(Cl)c(C(=O)Nc3ccc(Cl)cc3)cc2S(=O)(=O)Nc2nc3cccnc3[nH]2)cc1Cl	> 100 µM (inactive)	> 100 µM (inactive)	> 100 µM (inactive)	> 100 µM (inactive)	> 100 µM	> 100 µM (inactive)	> 100 µM (inactive)	> 100 µM (inactive)	> 100 µM (inactive)	> 100 µM (inactive)	> 100 µM (inactive)	> 100 µM (inactive)	> 100 µM (inactive)	28.6 µM (inactive)	> 100 µM (inactive)	> 100 µM (inactive)	> 100 µM (inactive)	> 100 µM (inactive)	> 100 µM (inactive)
CCOC(=O)C1=CN(C(=O)c2ccccc2)CCC1Cc1ccccc1 (stereo not given)	20.6 µM (inactive)	24.4 µM (inactive)	18 µM (inactive)	23.1 µM (inactive)	21.3 µM	9.04 µM (inactive)	17 µM (inactive)	18 µM (inactive)	19.5 µM (inactive)	13.5 µM (inactive)	16.2 µM (inactive)	20 µM (inactive)	24.5 µM (inactive)	18.1 µM (inactive)	29.1 µM (inactive)	23.1 µM (inactive)	22.9 µM (inactive)	15.8 µM (inactive)	33 µM (inactive)
CCN(CC)CCC(=O)c1ccc(Oc2ccc(Cl)cc2)cc1	12.9 µM (inactive)	23.3 µM (inactive)	19.5 µM (inactive)	17.6 µM (inactive)	18.4 µM	21.1 µM (inactive)	21.2 µM (inactive)	14.6 µM (inactive)	16.1 µM (inactive)	20.4 µM (inactive)	19 µM (inactive)	22.3 µM (inactive)	15.8 µM (inactive)	22.3 µM (inactive)	18.4 µM (inactive)	17.4 µM (inactive)	18.3 µM (inactive)	14 µM (inactive)	18 µM (inactive)
O=C(CSc1nc2ccc(I)cc2c(=O)n1Cc1ccccc1)NNC(=S)Nc1ccccc1	18.9 µM (inactive)	3.33 µM (inactive)	6.14 µM (inactive)	8.63 µM (inactive)	8.95 µM	25.5 µM (inactive)	41.5 µM (inactive)	> 100 µM (inactive)	30.3 µM (inactive)	6.08 µM (inactive)	4.98 µM (inactive)	77.6 µM (inactive)	6.53 µM (inactive)	> 100 µM (inactive)	54 µM (inactive)	3.9 µM (inactive)	61.8 µM (inactive)	14.7 µM (inactive)	
C[C@@H]1CC[C@@]2(OC1)O[C@H]1C[C@H]3[C@@H]4CC[C@H]5C[C@@H](OC6OC(CO)C(OC7OC(CO)C(O)C(OC8OCC(O)C(O)C8O)C7OC7OC(CO)C(O)C(O)C7O)C(O)C6O)[C@H](O)C[C@]5(C)[C@H]4CC[C@]3(C)[C@H]1[C@@H]2C (stereo not given in full)	2.75 µM (inactive)	2.21 µM (inactive)	0.693 µM (active)	3.88 µM (inactive)	3.4 µM	1.49 µM (inactive)	1.75 µM (inactive)	1.39 µM (inactive)	10.8 µM (inactive)	11.3 µM (inactive)	0.426 µM (active)	2.52 µM (inactive)	1.95 µM (inactive)	9.98 µM (inactive)	3.89 µM (inactive)		4.36 µM (inactive)	18.1 µM (inactive)	4.52 µM (inactive)
O=C(Nc1ccc(S(=O)(=O)/N=c2\ncccn2C(=O)C(C(F)(F)F)C(F)(F)F)cc1)C(C(F)(F)F)C(F)(F)F	> 100 µM (inactive)	0.0368 µM (active)	> 100 µM (inactive)	> 100 µM (inactive)	> 100 µM	> 100 µM (inactive)	> 100 µM (inactive)	> 100 µM (inactive)	> 100 µM (inactive)	> 100 µM (inactive)	> 100 µM (inactive)	> 100 µM (inactive)	> 100 µM (inactive)	> 100 µM (inactive)	> 100 µM (inactive)	> 100 µM (inactive)	> 100 µM (inactive)	> 100 µM (inactive)	
COC(=O)c1nc2c3c(cccc3c1C(=O)OC)Nc1ccccc1-2	36.6 µM (inactive)	50.2 µM (inactive)	13.2 µM (inactive)	25.2 µM (inactive)		53 µM (inactive)	34.8 µM (inactive)	32.3 µM (inactive)	46.2 µM (inactive)	43.8 µM (inactive)	10.7 µM (inactive)	17.8 µM (inactive)	35.9 µM (inactive)	35.7 µM (inactive)	21.1 µM (inactive)	33.4 µM (inactive)	40.9 µM (inactive)	61.4 µM (inactive)	18.8 µM (inactive)
C=C1C(=O)OC2C1C(OC(=O)/C(C)=C/C)CC(O)(CCl)C1C(O)C3OC3(C)C21O (stereo not given)	19.9 µM (inactive)	13.2 µM (inactive)	12.4 µM (inactive)	10.8 µM (inactive)	17.1 µM	8.79 µM (inactive)	36.9 µM (inactive)	18.9 µM (inactive)	26.6 µM (inactive)	13.6 µM (inactive)	0.7 µM (active)	> 50 µM (inactive)	> 50 µM (inactive)	9.77 µM (inactive)	> 50 µM (inactive)	> 50 µM (inactive)	40.1 µM (inactive)	> 50 µM (inactive)	
